Usually CC50 stands for the concentration giving 50% cytotoxicity. The low end stands for harm at low concentration, the high end for better tolerance by the cells.

≈ marks a conversion by molar mass, not a printed value. A value given as a limit tells only on which side of the number the result lay.

The values below come from ChEMBL document CHEMBL4513145, “CO-ADD screening of Biotechnology Research Centre (C.R.B.t) (Algeria) compounds”.

For assay [1], the system named is Cryptococcus neoformans.
Description: Antifungal activity against Cryptococcus neoformans H99 ATCC 208821 (CO-ADD:FG_002); MIC in YNB media using NBS plates, by Resazurin OD(600-570)
In assay [2] the test system is Escherichia coli. In words: microbe, parasite or virus in culture. The note with it: ATCC 25922, 18 h, ASSAY_TEST Inhibition of Bacterial Growth, detection method Absorption (OD600), MEDIA CAMHB, plate type 384well, NBS, CORNING #3640.
Description: Antibacterial activity against Escherichia coli ATCC 25922 (CO-ADD:GN_001); MIC in CAMBH media using NBS plates, by OD(600)
Assay [3] has as its system Staphylococcus aureus. Briefly: microbe, parasite or virus in culture. The note with it: ATCC 43300, 18 h, ASSAY_TEST Inhibition of Bacterial Growth, detection method Absorption (OD600), MEDIA CAMHB, plate type 384well, NBS, CORNING #3640.
Description: Antibacterial activity against Staphylococcus aureus MRSA ATCC 43300 (CO-ADD:GP_020); MIC in CAMBH media, using NBS plates, by OD(600)
The test system of assay [4] is HEK293. Briefly: cells. The note with it: Homo sapiens, ATCC CRL1573, HEK293; ASSAY_TEST Inhibition of Cell Viability; detection method Resazurin; Fluorescence (ex560/em590); MEDIA DMEM with 10% FBS; plate type 384well; TC; CORNING #3712; time 18 hr. In kind it is functional. In general terms: Alamar Blue is a resazurin reagent that responds to reducing activity.
Assay [5] deals with Acinetobacter baumannii. In words: microbe, parasite or virus in culture. The note with it: ATCC 19606, 18 h, ASSAY_TEST Inhibition of Bacterial Growth, detection method Absorption (OD600), MEDIA CAMHB, plate type 384well, NBS, CORNING #3640.
Description: Antibacterial activity against Acinetobacter baumannii ATCC 19606 (CO-ADD:GN_034); MIC in CAMBH media using NBS plates, by OD600
Assay [6] deals with Candida albicans. Briefly: microbe, parasite or virus in culture. The note with it: ATCC 90028, ASSAY_TEST Inhibition of Fungal Growth, detection method Absorption (OD530), plate type 384well, NBS, CORNING #3640.
Description: Antifungal activity against Candida albicans ATCC 90028 (CO-ADD:FG_001); MIC in YNB media using NBS plates, by OD630
In assay [7] the test system is Klebsiella pneumoniae. In words: microbe, parasite or virus in culture. The note with it: ATCC 700603, 18 h, ASSAY_TEST Inhibition of Bacterial Growth, detection method Absorption (OD600), MEDIA CAMHB, plate type 384well, NBS, CORNING #3640.
Description: Antibacterial activity against Klebsiella pneumoniae MDR ATCC 70063 (CO-ADD:GN_003); MIC in CAMBH media using NBS plates, by OD(600)
For assay [8], the system named is Pseudomonas aeruginosa. In words: microbe, parasite or virus in culture. The note with it: ATCC 27853, 18 h, ASSAY_TEST Inhibition of Bacterial Growth, detection method Absorption (OD600), MEDIA CAMHB, plate type 384well, NBS, CORNING #3640.
Description: Antibacterial activity against Pseudomonas aeruginosa ATCC 27853 (CO-ADD:GN_042); MIC in CAMBH media using NBS plates, by OD(600)

`O=C(OCc1ccccc1)N1CC(Cc2ccccc2)C(O)O1` (stereo not given): the MIC in assay [1], in assay [2], in assay [3], in assay [5], in assay [6] and in assay [7] was over 32 µg/mL throughout. The compound further showed an MIC in assay [8] of over 32 µg/mL. This compound also registered a CC50 in assay [4] of over 32 µg/mL.
Turning to `CC1CN(S(=O)(=O)c2ccc([N+](=O)[O-])cc2)N(C(=O)OC(C)(C)C)C1=O` (stereo not given), the MIC in assay [1] is over 32 µg/mL; in assay [2], over 32 µg/mL; in assay [3], 32 µg/mL (≈ 83 µM); in assay [5] it was over 32 µg/mL; in assay [6], over 32 µg/mL; in assay [7], over 32 µg/mL. This compound also showed an MIC in assay [8] of over 32 µg/mL. The compound further showed a cytotoxic concentration (CC50) in assay [4] of 6.8 µg/mL (≈ 17.6 µM).
Take `CCCCCCCC1CN(C(=O)OCc2ccccc2)OC1O` (stereo not given): the MIC in assay [1], in assay [2], in assay [3], in assay [5], in assay [6] and in assay [7] was over 32 µg/mL throughout. In assay [8], this compound came in with an MIC of over 32 µg/mL. The half-maximal cytotoxic concentration (CC50) in assay [4] is over 32 µg/mL.
Take `CC1CN(C(=O)OCc2ccccc2)OC1O` (stereo not given): the MIC in assay [1] was 32 µg/mL (≈ 135 µM); in assay [2], over 32 µg/mL; in assay [3] it was over 32 µg/mL; in assay [5], over 32 µg/mL; in assay [6] it was over 32 µg/mL; in assay [7], over 32 µg/mL. In assay [8], this compound registered an MIC of over 32 µg/mL. The same compound returned a half-maximal cytotoxic concentration (CC50) in assay [4] of over 32 µg/mL.
For `CC1CN(S(=O)(=O)c2ccc([N+](=O)[O-])cc2)N(C(=O)OC(C)(C)C)C1O` (stereo not given), the MIC in assay [1], in assay [2], in assay [3], in assay [5], in assay [6] and in assay [7] was over 32 µg/mL throughout. The MIC in assay [8] was over 32 µg/mL. Further, the 50% cytotoxic concentration (CC50) in assay [4] came out at 6.19 µg/mL (≈ 16 µM).
